In the supplement of paper PMC11208160:

Assay: recombinant UMI read abundance after kanamycin selection (control-corrected) (log10(CPM+1)); higher = more efficient recombination; extreme values may be limits of the assay; sequences stand for … in AGTGCAGAGAAAATCGGCCAGTTTTCTCTGCCTGCAGTCCGCATGCCGTGGGACCCCTTGGGTTCTAACCTGTTGCCTAGATTTATGCAGCGGACTGCCTTTCTCCCAAAGTGATAAACCGG…AGGTTGGTTTCACT; site = the 11-nt donor
Procedure: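 Pooled E. coli donor-specificity screen for the IS621 bridge recombinase. Each library member carries a reprogrammed 11-nt donor and a full-length LE bridge RNA expressed in cis from the natural promoter, with a paired donor-binding loop (8-nt LDG + 4-nt RDG) and a target-binding loop fixed to T5. It is co-electroporated with a T5 target plasmid; recombinase is induced with 0.07 mM IPTG and recombinants are selected on kanamycin. UMIs are counted as CPM, averaged over two biological replicates and corrected by the unselected control. Molecule = full bridge RNA written as DNA, built from the T5 scaffold: LDG = donor specificity nt 1-8, RDG = reverse complement of nt 8-11.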
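Further: IS621 bridge recombinase in Escherichia coli cells against a fixed T5 target plasmid.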

Sequence | recombinant UMI read abundance (log10)
ACACGGACATGGACCGGTTTTCCCGGTAATCCGTATTTGTC (site ACACGGACTGA) | 0.491
ACACGGACATGGACCGGTTTTCCCGGTAATCCGTATTTGTC (site ACACGTACTGA) | 0
ACACGTCCATGGACCGGTTTTCCCGGTAATCCGTATTTGAT (site ACACGTCCTAT) | 1.56
ACACTAGCATGGACCGGTTTTCCCGGTAATCCGTATTTGTG (site ACACTAGCTCA) | 1.62
ACACTATCATGGACCGGTTTTCCCGGTAATCCGTATTTGCA (site ACAATATCTTG) | 2.11
ACACTATCATGGACCGGTTTTCCCGGTAATCCGTATTTGCA (site ACACTATCTTG) | 2.85
ACACTATCATGGACCGGTTTTCCCGGTAATCCGTATTTGCA (site ACAGTATCTTG) | 1.89
ACACTATCATGGACCGGTTTTCCCGGTAATCCGTATTTGCA (site ACATTATCTTG) | 2.21
ACAGAAACATGGACCGGTTTTCCCGGTAATCCGTATTTGCA (site ACAGAAACTTG) | 2.78
ACAGAAACATGGACCGGTTTTCCCGGTAATCCGTATTTGCA (site ACAGTATCTTG) | 0
ACAGCAGCATGGACCGGTTTTCCCGGTAATCCGTATTTGCA (site ACAGCAGCTTG) | 2.49
ACAGCAGCATGGACCGGTTTTCCCGGTAATCCGTATTTGCA (site ACAGTATCTTG) | 0
ACAGCGTCATGGACCGGTTTTCCCGGTAATCCGTATTTGAC (site ACAGCGTCTGT) | 3.29
ACAGCTACATGGACCGGTTTTCCCGGTAATCCGTATTTGTG (site ACAACTACTCA) | 0.815
ACAGCTACATGGACCGGTTTTCCCGGTAATCCGTATTTGTG (site ACACCTACTCA) | 0.156
ACAGCTACATGGACCGGTTTTCCCGGTAATCCGTATTTGTG (site ACAGCTACTCA) | 1.44

Sequence | recombinant UMI read abundance (log10)
ACAGCTACATGGACCGGTTTTCCCGGTAATCCGTATTTGTG (site ACATCTACTCA) | 0.0498
ACAGGAACATGGACCGGTTTTCCCGGTAATCCGTATTTGTC (site ACAAGAACTGA) | 1.18
ACAGGAACATGGACCGGTTTTCCCGGTAATCCGTATTTGTC (site ACACGAACTGA) | 0.428
ACAGGAACATGGACCGGTTTTCCCGGTAATCCGTATTTGTC (site ACAGGAACTGA) | 2.43
ACAGGAACATGGACCGGTTTTCCCGGTAATCCGTATTTGTC (site ACATGAACTGA) | 0.289
ACAGGACCATGGACCGGTTTTCCCGGTAATCCGTATTTGGA (site ACAGGACCTTC) | 0.00625
ACAGGATCATGGACCGGTTTTCCCGGTAATCCGTATTTGCC (site ACAGGATCTGG) | 2.27
ACAGGATCATGGACCGGTTTTCCCGGTAATCCGTATTTGCC (site ACAGTATCTTG) | 0
ACAGGGTCATGGACCGGTTTTCCCGGTAATCCGTATTTGCA (site ACAGGGTCTTG) | 3.2
ACAGGGTCATGGACCGGTTTTCCCGGTAATCCGTATTTGCA (site ACAGTATCTTG) | 1.89
ACAGTACCATGGACCGGTTTTCCCGGTAATCCGTATTTGCC (site ACAGTACCTGG) | 0
ACAGTACCATGGACCGGTTTTCCCGGTAATCCGTATTTGCC (site ACAGTATCTTG) | 0.966
ACAGTAGCATGGACCGGTTTTCCCGGTAATCCGTATTTGTA (site ACAGTAGCTTA) | 2.87
ACAGTAGCATGGACCGGTTTTCCCGGTAATCCGTATTTGTA (site ACAGTATCTTG) | 1.49
ACAGTATCATGGACCGGTTTTCCCGGTAATCCGTATTTGCG (site ACAGTATCTAG) | 2.18
ACAGTATCATGGACCGGTTTTCCCGGTAATCCGTATTTGCG (site ACAGTATCTCG) | 3.51
